Source: the NIST ThermoML archive (doi:10.1016/j.tca.2007.04.007)

Assay: molar heat capacity at constant pressure
Conditions: 101.33 kPa, Crystal, Large sample (1 g) DSC

C[C@@H]1CC[C@H]2[C@@H](C)C(=O)O[C@@H]3O[C@@]4(C)CC[C@@H]1[C@]32OO4 [artemisinin]
Conditions	molar heat capacity at constant pressure [J/K/mol]
80.88 K	106.29
84.39 K	107.4
87.31 K	111.29
90.28 K	115.11
93.15 K	118.77
96.08 K	122.29
99.06 K	126.22
101.96 K	129.96
104.91 K	133.57
107.91 K	137.36
110.85 K	141.04
113.72 K	144.58
116.65 K	147.72
119.63 K	151.4
122.57 K	154.67
125.44 K	158.04
128.38 K	161.18
131.37 K	164.32
134.31 K	167.29
137.21 K	170.2
140.06 K	173.58
142.85 K	175.98
145.7 K	178.74
148.61 K	181.39
151.48 K	184.15
154.31 K	188.26
157.09 K	189.51
159.85 K	190.78
162.66 K	193.14
165.54 K	194.65
168.38 K	196.91
171.2 K	197.84
173.98 K	199.03
176.74 K	201.03
179.47 K	203.22
182.17 K	204.81
184.93 K	207.17
187.75 K	209.02
190.54 K	210.2
193.3 K	211.69
196.04 K	214.53
198.78 K	218.09
201.49 K	234.61
204.35 K	248.75
207.26 K	254.52
210.15 K	259.16
213.03 K	263.67
215.98 K	268.33
218.98 K	272.61
221.97 K	277.47
224.93 K	283.14
227.86 K	300.11
230.9 K	305.21
234.15 K	304.08
237.2 K	300.49
240.2 K	312.96
243.25 K	303.71
246.2 K	290.19
249.15 K	291.35
252.08 K	292.72
254.99 K	294.78
257.88 K	295.87
260.75 K	297.43
263.6 K	299.57
266.43 K	301.66
269.3 K	304.16
272.21 K	307.87
275.11 K	309.22
278.48 K	312.58
282.32 K	315.57
286.12 K	318.4
289.88 K	323.79
293.71 K	327.62
297.59 K	331.62
301.45 K	336.33
305.28 K	339.95
309.08 K	344.57
312.86 K	351.73
316.64 K	334.75
320.44 K	337.71
324.16 K	338.79
327.84 K	344.42
331.58 K	356.39
335.37 K	360.69
339.11 K	368.06
342.41 K	376.18
345.26 K	376.26
348.11 K	388.36
350.96 K	394.39
353.85 K	397.54
356.81 K	403.86
359.88 K	413.08
363.03 K	429.5
